Molecules are shown by their SMILES. In brackets after ≈: the same amount, converted by molar mass. Entries after “also recorded” stand apart in the source; their conditions may differ.

Here are results for 1 compound from US11419834B2, “Methods for treating diseases or infections caused by or associated with H. pylori using a halogenated salicylanilide” (Rhode Island Hospital, priority 2019, dated 2022).

For test [1], the system named is H. pylori reference strain 60190 (ATCC 49503). The test can be described thus: Broth microdilution assay, MIC. Type of test: cell-based. The conditions noted are these: Helicobacter pylori, ATCC49503, 72 h; H. pylori strain 60190; Müller-Hinton broth + 10% FBS, 3 days.
Test [2] deals with H. Pylori 43504. The test can be described thus: Broth microdilution assay, MIC. The conditions noted are these: Helicobacter pylori; strain H. Pylori 43504. Type of test: cell-based. Background: In broth dilution the organism is exposed to a series of concentrations in liquid medium.
Test [3] concerns H. Pylori 51932. The test can be described thus: Broth microdilution assay, MIC. To be noted: Helicobacter pylori; strain H. Pylori 51932. Type of test: cell-based.
Test [4] relates to H. pylori bacteria (strain 60190). The test can be described thus: Multi-step mutation frequency (serial passage resistance study). The test is classed as cell-based, Helicobacter pylori. How it is done: To determine whether H. pylori can develop resistance against niclosamide, bacterial cells were suspended in MHB with 10% FBS at OD600=0.06 in the presence of serially diluted niclosamide and incubated, as described in the antibiotic susceptibility assays sub-section. The standard antibiotics amoxicillin and clarithromycin were used as controls. From the highest drug concentration allowing visible growth at sub-MIC concentration, aliquots were diluted (1:40) into fresh medium. These were used to inoculate the second set of serial drug dilutions as described by Dalhoff et al. (Clin Infect Ds. 2001 Mar. 15; 32 Suppl, 1:S16-22). After a 3-day incubation, H. pylori bacteria (strain 60190) were passaged sequentially over 30 days and the OD was recorded.

In test [5] the test system is H. pylori (strain 60190) adhered to AGS cells. The test can be described thus: Adhesion of H. pylori to AGS cells. Type of test: cell-based, Helicobacter pylori. The conditions noted are these: niclosamide 2×MIC, 20 hours, MOI=100. How it is done: (§1) The AGS (Gastric adenocarcinoma cell lines) cell line was used to examine inhibition of adhesion and invasion of H. pylori (strain 60190) by niclosamide, as described by Schmitt et al. (Front Cell Infect Microbiol. 2013; 3:93). The AGS cells were grown in Dulbecco's Modified Eagle Medium (DMEM, ex. Gibco), supplemented with 10% fetal bovine serum (Gibco) and 1% penicillin/streptomycin (Gibco) and maintained at 37° C. in 5% C02. Then, 5×10^5 cells in antibiotic and serum-free DMEM were seeded in 6-well plates 24 hours prior to infection. H. pylori bacteria at a multiplicity of infection (MOI)=100 were added and allowed to adhere to the surface of the AGS cells. Planktonic bacteria were removed after 2 hours and DMEM with niclosamide (2×MIC) was then added to the wells containing the AGS. The mammalian cells were lysed by 0.1% saponin after 20 hours of incubation and the adhered bacteria were then serially diluted, plated in Brucella agar supplemented with 10% FBS, and incubated as described above. A control arm of DMSO and a comparator using amoxicillin at a concentration of 0.1 μg/mL (10×MIC) was also assessed. […]

Test [6] relates to AGS cells invaded by H. pylori. The test can be described thus: Invasion, gentamicin protection assay. Type of test: cell-based, Helicobacter pylori. To be noted: 2×MIC, 0.5 μg/mL, 20 hours, AGS cell lines. How it is done:
as §1

The test system of test [7] is AGS cells co-cultured with H. pylori (strain 60190). The test can be described thus: Light microscopy imaging for vacuolation. The test is classed as cell-based. The conditions noted are these: sub-MIC (0.2 μg/mL), 24 h, MOI of 100. How it is done: H. Pylon bacteria secrete VacA toxin via a type V secretion system (Galmiche et al. Gut Microbes. 2010 November-December; 1(6):392-5. 44). This toxin binds to host gastric epithelial cells and its internalization leads to vacuolation, characterized by the accumulation of large vacuoles in gastric epithelial cells during the infection process. AGS cells were harvested and seeded into a 6 well plate at a concentration of 5×10^5 cells, 24 h before experimentation. H. Pylon bacteria (strain 60190) were harvested and washed with sterile PBS and co-cultured with AGS at a MOI of 100. After incubation for 24 h, the cells were washed, magnified under a microscope, and examined for vacuolation. […] After 3 days, the bacteria were washed and treated with TRIZOL (Invitrogen, Carlsbad, Calif., USA), and the RNA concentration was determined using a NanoVue Plus spectrophotometer (GE Healthcare, Fairfield, Conn., USA). PCR amplifications were performed, and the products were analysed by gel electrophoresis (1.0% agarose) containing SYBR® Safe (Invitrogen). Gel images were captured and analysed using the Quantity One System.

The subject of test [8] is H. pylori vacA gene expression. The test can be described thus: RT-PCR study on VacA toxin expression. The test is classed as cell-based, Helicobacter pylori. To be noted: sub-MIC level of 200 ng/mL, 3 days.

By MIC is commonly meant the smallest concentration in the dilution series that meets the test's criterion for growth inhibition. As to `O=C(Nc1ccc([N+](=O)[O-])cc1Cl)c1cc(Cl)ccc1O` [Niclosamide, niclosamide], the MIC was determined as 0.25 µg/mL in test [1], 0.125 µg/mL (≈ 0.382 µM) in test [2] and 0.5 µg/mL (≈ 1.53 µM) in test [3]. Besides, the “development of H. pylori resistance” value in test [4] (30 day resistance studies) was “no H. pylori resistance to niclosamide developed”. In addition, in test [4] (at least 10 passages), the “change in MIC through at least 10 passages” value is given as “remained constant”. Also, in test [4] (passaged sequentially over 30 days), the “increase in MIC during continuous passage” value is listed as “remained unchanged”. The “reduction of CFU/mL counts of adhered bacteria” value in test [5] came out at 3 log10. Also, the “reduction of intracellular CFU” value in test [6] was 3 log10 CFU. For the same compound, the “effect on vacuolation of AGS cells” value in test [7] is on record as “prevented vacuolation”. Moreover, the “effect on VacA expression compared to housekeeping gene rpoB” value in test [8] was “down-regulated vacA gene; also recorded: downregulates VacA expression”.
